The text below walks through data of patent US20240228458A1, “PYRIMIDINE DERIVATIVE HAVING PROTEIN KINASE INHIBITORY ACTIVITY, AND THERAPEUTIC PHARMACEUTICAL COMPOSITION COMPRISING SAME” (THERAPEX CO., LTD., priority 2021, published 2024).

Bounds are passed on as bounds.

Holding throughout (type): cell-based
The subject of assay [1] is Ba/F3 cells expressing L858R/T790M/C797S (EGFR-LTC). The assay is described as follows: Growth inhibition (GI50) of Ba/F3 cells expressing L858R/T790M/C797S (EGFR-LTC), Celltiter glo. Particulars: Mus musculus, BaF3, 72 h. The method, boiled down:
(§1)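 Antiproliferative activity was assessed in EGFR-mutant or wild-type Ba/F3 cells over 72 h at 37 °C with 5% CO2. Cell viability was determined by CellTiter-Glo, and GI50 taken as the compound concentration inhibiting growth by 50%.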

Assay [2] relates to Ba/F3 cells expressing del19/T790M (EGFR-DT). The assay is described as follows: Growth inhibition (GI50) of Ba/F3 cells expressing del19/T790M (EGFR-DT), Celltiter glo. As to conditions: Mus musculus, BaF3, 72 h. The protocol:
(§2) In this experimental example, a determination was made as to whether the compounds prepared in Examples 1-283 have the ability to inhibit the growth of Ba/F3 cells expressing EGFR-wt, del19/T790M/C797S (EGFR-DTC), L858R/T790M/C797S (EGFR-LTC), del19/T790M (EGFR-DT), and L858R/T790M (EGFR-LT) variants.
(§3) The parental Ba/F3 cell line is a population of cells that are not introduced with EGFR variants. Specifically, 100 μl of a cell line expressing each variant was plated in a 96-well plate at a density of 100,000 cells/ml. 10-point, 4-fold serial dilutions of each compound were prepared, starting at 2 mM. After 4 h, 0.5 μl of the compound (0.5% DMSO) was added, followed by incubation at 37° C. and 5% CO2 for 72 h. After incubation, the number of viable cells was measured using a Celltiter glo assay kit (Promega) and the GI50 of the compound was determined. The term “GI50” refers to the molar concentration (μM) of the compound required for 50% growth inhibition of cells.

For assay [3], the system named is Ba/F3 cells expressing L858R/T790M (EGFR-LT). Description: Growth inhibition (GI50) of Ba/F3 cells expressing L858R/T790M (EGFR-LT), Celltiter glo. Particulars: Mus musculus, BaF3, 72 h. The protocol: as §2, §3
In assay [4] the test system is Ba/F3 cells expressing del19/T790M/C797S (EGFR-DTC). The assay is described as follows: Growth inhibition (GI50) of Ba/F3 cells expressing del19/T790M/C797S (EGFR-DTC), Celltiter glo. Particulars: Mus musculus, BaF3, 72 h. In outline:
as §1

In another assay the test system is parental Ba/F3 cell line. The assay is described as follows: Growth inhibition (GI50) of the parental Ba/F3 cell line (not introduced with EGFR variants), Celltiter glo. Particulars: Mus musculus, BaF3, 72 h, parental Ba/F3 cells. The method, boiled down:
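Viable cell count by CellTiter-Glo after 72 h at 37 °C gave GI50 values (μM, 50% growth inhibition). Cells lacking EGFR variants were seeded at 100,000 cells/ml and dosed 4 h later with 4-fold serial dilutions from a 2 mM stock, 0.5% DMSO.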

The test system of assay [5] is Ba/F3 cells expressing EGFR-wt. The assay is described as follows: Growth inhibition (GI50) of Ba/F3 cells expressing EGFR-wt, Celltiter glo. Particulars: Mus musculus, BaF3, 72 h. In outline: as §1

In the case of `COc1nc(N2CCS(=O)(=O)CC2)ccc1Nc1ncc(Cl)c(Nc2ccccc2NS(C)(=O)=O)n1` [Example 6], the GI50 was 500 to 2000 nM in assay [1]; 500 to 2000 nM in assay [2]; 500 to 2000 nM in assay [3]; 500 to 2000 nM in assay [4]; greater than 10000 nM with parental Ba/F3 cell line; 500 to 2000 nM in assay [5].

As to `COc1nc(N2CCC(N3CCN(C)CC3)CC2)c(C)cc1Nc1ncc(Cl)c(Nc2ccc(F)cc2NS(C)(=O)=O)n1` [Example 15, N-(2-((5-chloro-2-((2-methoxy-5-methyl-6-(4-(4-methylpiperazin-1-yl)piperidin-1-yl)pyridin-3-yl)amino)pyrimidin-4-yl)amino)-5-fluorophenyl)methanesulfonamide], the 50% growth inhibitory concentration (GI50) was 100 to 500 nM in assay [1]; 1 to 25 nM in assay [2]; 100 to 500 nM in assay [3]; 100 to 500 nM in assay [4]; 500 to 2000 nM with parental Ba/F3 cell line; 500 to 2000 nM in assay [5].

In the case of `COc1nc(N2CCN(CCO)CC2)ccc1Nc1ncc(Cl)c(Nc2ccc(F)cc2NS(C)(=O)=O)n1` [Example 18], the concentration for 50% growth inhibition (GI50) in assay [1] was in the range of 500 to 2000 nM; in assay [2], 500 to 2000 nM; in assay [3], 500 to 2000 nM; in assay [4] it was 500 to 2000 nM; with parental Ba/F3 cell line, 100 to 500 nM; in assay [5] it was 25 to 100 nM.

As to `COc1nc(N2CCN(C(C)=O)CC2)ccc1Nc1ncc(Cl)c(Nc2ccc(F)cc2NS(C)(=O)=O)n1` [Example 19, N-(2-((2-((6-(4-acetylpiperazin-1-yl)-2-methoxypyridin-3-yl)amino)-5-chloropyrimidin-4-yl)amino)-5-fluorophenyl)methanesulfonamide], the GI50 in assay [1] fell in the range of 500 to 2000 nM; in assay [2], 500 to 2000 nM; in assay [3] it was 500 to 2000 nM; in assay [4], 500 to 2000 nM; in the assay on parental Ba/F3 cell line it was 2000 to 10000 nM; in assay [5], 500 to 2000 nM.

Turning to `COc1nc(N2C[C@@H](C)N(C)[C@@H](C)C2)ccc1Nc1ncc(Cl)c(Nc2ccc(F)cc2NS(C)(=O)=O)n1` [Example 20, N-(2-((5-chloro-2-((2-methoxy-6-((3S,5R)-3,4,5-trimethylpiperazin-1-yl)pyridin-3-yl)amino)pyrimidin-4-yl)amino)-5-fluorophenyl)methanesulfonamide], the 50% growth inhibitory concentration (GI50) in assay [1] was in the range of 500 to 2000 nM; in assay [2] it was 500 to 2000 nM; in assay [3], 500 to 2000 nM; in assay [4], 500 to 2000 nM; with parental Ba/F3 cell line, 2000 to 10000 nM; in assay [5], 2000 to 10000 nM.

Turning to `COc1nc(N2CCC(O)CC2)ccc1Nc1ncc(Cl)c(Nc2ccc(F)cc2NS(C)(=O)=O)n1` [Example 21, N-(2-((5-chloro-((6-(4-hydroxypiperidin-1-yl)-2-methoxypyridin-3-yl)amino)pyrimidin-4-yl)amino)-5-fluorophenyl)methanesulfonamide], the concentration for 50% growth inhibition (GI50) in assay [1] is 500 to 2000 nM; in assay [2], 500 to 2000 nM; in assay [3], 2000 to 10000 nM; in assay [4] it was 500 to 2000 nM; in the assay on parental Ba/F3 cell line, greater than 10000 nM; in assay [5], 2000 to 10000 nM.

Consider `COc1nc(N2CCN(C3COC3)CC2)ccc1Nc1ncc(Cl)c(Nc2ccc(F)cc2NS(C)(=O)=O)n1` [Example 22, N-(2-((5-chloro-2-((2-methoxy-6-(4-(oxetan-3-yl)piperazin-1-yl)pyridin-3-yl)amino)pyrimidin-4-yl)amino)-5-fluorophenyl)methanesulfonamide], for which the GI50 in assay [1] was 500 to 2000 nM; in assay [2] it was 25 to 100 nM; in assay [3], 2000 to 10000 nM; in assay [4], 500 to 2000 nM; in the assay with parental Ba/F3 cell line, 500 to 2000 nM; in assay [5] it was 2000 to 10000 nM.

For `COc1nc(N2CCC(N(C)C)C2)ccc1Nc1ncc(Cl)c(Nc2ccc(F)cc2NS(C)(=O)=O)n1` (centres unmarked) [Example 23, N-(2-((5-chloro-2-((6-(3-(dimethylamino)pyrrolidin-1-yl)-2-methoxypyridin-3-yl)amino)pyrimidin-4-yl)amino)-5-fluorophenyl)methanesulfonamide], the GI50 in assay [1] lay in the range of 100 to 500 nM; in assay [2], 100 to 500 nM; in assay [3], 500 to 2000 nM; in assay [4] it was 100 to 500 nM; in the assay on parental Ba/F3 cell line it was 100 to 500 nM; in assay [5] it was 100 to 500 nM.

For the molecule `COc1cc(N2CCC(N3CCCN(C)CC3)CC2)c(C)cc1Nc1ncc(Br)c(Nc2ccc(F)cc2NS(C)(=O)=O)n1` [Example 38, N-(2-((5-bromo-2-((2-methoxy-5-methyl-4-(4-(4-methyl-1,4-diazepan-1-yl)piperidin-1-yl)phenyl)amino)pyrimidin-4-yl)amino)-5-fluorophenyl)methanesulfonamide], the GI50 in assay [1] lay in the range of 25 to 100 nM; in assay [2] it was 25 to 100 nM; in assay [3], 100 to 500 nM; in assay [4], 25 to 100 nM; with parental Ba/F3 cell line, 500 to 2000 nM; in assay [5], 100 to 500 nM.

As to `COc1nc(N2CCC(N3CCN(C)CC3)CC2)ccc1Nc1ncc(Cl)c(N(c2ccc3scnc3c2NS(C)(=O)=O)S(C)(=O)=O)n1` [Example 111, N-(5-chloro-2-((2-methoxy-6-(4-(4-methylpiperazin-1-yl)piperidin-1-yl)pyridin-3-yl)amino)pyrimidin-4-yl)-N-(4-(methylsulfonamido)benzo[d]thiazol-5-yl)methanesulfonamide], the GI50 in assay [2] lay in the range of 500 to 2000 nM; in assay [3], 2000 to 10000 nM; in assay [4], 500 to 2000 nM; with parental Ba/F3 cell line, 2000 to 10000 nM; in assay [5], 2000 to 10000 nM.

Regarding `COc1nc(C2CCCN(C)CC2)ccc1Nc1ncc(Br)c(Nc2ccc(F)cc2NS(C)(=O)=O)n1` (centres unmarked) [Example 145, N-(2-((5-bromo-2-((2-methoxy-6-(1-methylazepan-4-yl)pyridin-3-yl)amino)pyrimidin-4-yl)amino)-5-fluorophenyl)methanesulfonamide], the 50% growth inhibitory concentration (GI50) in assay [1] is 100 to 500 nM; in assay [4], 100 to 500 nM; with parental Ba/F3 cell line, 2000 to 10000 nM; in assay [5], 2000 to 10000 nM.

In the case of `COc1cc(N2CCC(N3CCN(C)CC3)CC2)c(F)cc1Nc1ncc(Br)c(Nc2ccc(F)cc2NS(C)(=O)=O)n1` [Example 146, N-(2-((5-bromo-2-((5-fluoro-2-methoxy-4-(4-(4-methylpiperazin-1-yl)piperidin-1-yl)phenyl)amino)pyrimidin-4-yl)amino)-5-fluorophenyl)methanesulfonamide], the GI50 was 100 to 500 nM in assay [1], 100 to 500 nM in assay [4], 2000 to 10000 nM in the assay on parental Ba/F3 cell line and 500 to 2000 nM in assay [5].

For `COc1cc(N2CCC(N3CCN(C)CC3)CC2)c(Cl)cc1Nc1ncc(Cl)c(Nc2cc(Cl)ccc2NS(C)(=O)=O)n1` [Example 151, N-(4-chloro-2-((5-chloro-2-((5-chloro-2-methoxy-4-(4-(4-methylpiperazin-1-yl)piperidin-1-yl)phenyl)amino)pyrimidin-4-yl)amino)phenyl)methanesulfonamide], the GI50 in assay [1] is 1 to 25 nM; in assay [2], 1 to 25 nM; in assay [3], 1 to 25 nM; in assay [4] it was 1 to 25 nM; in assay [5], 100 to 500 nM.

As for `COc1cc(N2CCC(N3CCN(C)CC3)CC2)c(C)cc1Nc1ncc(Cl)c(Nc2cc(Cl)ccc2-c2c[nH]nn2)n1` [Example 166], the GI50 in assay [1] lay in the range of 1 to 25 nM; in assay [4], 1 to 25 nM; in the assay with parental Ba/F3 cell line, 500 to 2000 nM; in assay [5] it was 100 to 500 nM.

`Cc1cc(Nc2ncc(Cl)c(Nc3cc(Cl)ccc3-c3cnn[nH]3)n2)c(Cl)cc1N1CCC(N2CCN(C)CC2)CC1` [Example 185]: the 50% growth inhibitory concentration (GI50) fell in the range of 25 to 100 nM in assay [1], 500 to 2000 nM in assay [4], 500 to 2000 nM with parental Ba/F3 cell line and 500 to 2000 nM in assay [5].

Take `COc1cc(N2CCC(N3CCN(C)CC3)CC2)c(Cl)cc1Nc1ncc(Cl)c(Nc2cc(Cl)ccc2-c2cnn[nH]2)n1` [Example 186]: the GI50 was in the range of 25 to 100 nM in assay [1], 25 to 100 nM in assay [4], 100 to 500 nM in the assay on parental Ba/F3 cell line and 25 to 100 nM in assay [5].

As to `COc1cc(N2CCC(N3CCN(C)CC3)CC2)c(C)cc1Nc1ncc(Br)c(Nc2cc(Cl)ccc2-c2cnn[nH]2)n1` [Example 187], the concentration for 50% growth inhibition (GI50) fell in the range of 25 to 100 nM in assay [1], 25 to 100 nM in assay [4], 500 to 2000 nM in the assay with parental Ba/F3 cell line and 100 to 500 nM in assay [5].

Consider `COc1cc(N2CCC(N3CCN(C)CC3)CC2)c(Cl)cc1Nc1ncc(Br)c(Nc2cc(Cl)ccc2-c2cnn[nH]2)n1` [Example 195], for which the GI50 in assay [1] is 25 to 100 nM; in assay [4], 25 to 100 nM; with parental Ba/F3 cell line, 100 to 500 nM; in assay [5] it was 100 to 500 nM.
